Experiment [1] deals with Human IgM. The experiment in a line: Glycan array analysis (secondary test), relative anti-glycan Human IgM, pancreatic cancer. It is filed as binding. Here is the method:
The reagents, equipment and assay procedures were totally the same as primary test. However, the intensity of array was converted into “Ab level (μg/mL)” based on following calculation which is relative to Anti-human Globo H IgG.
The internal curve of each chip was using linear regression to calculate slope and intercept. In certain examples, the Ab level (μg/mL)=[(raw data-intercept)/slope]×0.1. The internal curve was performed using 0.0625, 0.125, 0.25, 0.5, 0.75, and 1 μg/mL of human IgM.
Relative Anti-glycan Human IgM: There were total 277 clinical samples (108 pancreatic cancer and 169 healthy serum) performed using Globo H-lipid 1 and SSEA-4-lipid 1 immobilized arrays. The median values of Globo H-lipid 1 IgM test were 0.32 (pancreatic cancer) and 0.25 (healthy) [FIG. 11A]. The median values of SSEA-4-lipid 1 IgM test were 0.12 (pancreatic cancer) and 0.08 (healthy) [FIG. 11B].

The test system of experiment [2] is Human IgM. The experiment in a line: Glycan array analysis (primary test), glycan score of Human IgM. It is filed as binding. An excerpt: (§1) This testing platform utilized Agnitio BioIC system which performed an automatically ELISA reaction within a microfluidic cartridge. Each cartridge contained an array of microfluidic pumps and valves, a channel network, reagent storage reservoirs, a glycan array reaction zone, and a waste storage reservoir. To perform the test, all reagent and test sample were pumped sequentially, from their respected reservoirs in to a reaction zone containing the glycan microarray in order to carry out a multiplexed ELISA reaction with chemical luminescence. The result data was captured simultaneously and data analysis was performed by the LabIT software provided by Agnitio Science and Technology Inc. The specification of equipment list of Agnitio BioIC system is listed in Table 2.
The Microfluidic cartridge was manufactured at Agnitio Science and Technology Inc. The microfluidic cartridge was composed by three layers shown in FIG. 9. The upper layer contained serum and reagents reservoirs, microfluidic pumps, and ELISA channel network. The rubber middle layer contained a coated nitrocellulose membrane. The glycan antigens (Globo H-ceramide and Globo H-lipid 1) were immobilized onto the nitrocellulose membrane via hydrophobic interactions. The bottom layer contained a tank as for the waste reservoir. There were one hundred and twenty spots for original array layout design. In order to ensure the spot-to-spot coefficient of variation (CV) was lower than 15%, we only used central sixty-four spots for following clinical sample test.
Reagent preparation: Sixty-six microliter Normal Human Serum (NETS) or pancreatic cancer patient's serum was added in 594 μL Sample Diluent Buffer (BioCheck Inc., Cat#MB 10175) to form ten-fold dilution. The Secondary Antibody Solution was performed by first adding 2 μL Horseradish peroxidase (HRP)-conjugated goat anti-human IgG (KPL Inc., Cat#474-1002)/IgM (KPL Inc., Cat#474-1003) in 98 μL Conjugate Buffer (SuperBlock (TBS) Blocking Buffer plus 0.2% Tween 20, Thermo Fisher Scientific Inc., Cat#37535) to form fifty-fold dilution. Next, 40 μL diluted solution was pumped into 2360 μL Conjugate Buffer to form the Secondary Antibody Solution (3000× diluted).
Assay procedure: Six hundred and twenty microliter Wash Buffer (Phosphate-buffered saline (Thermo Fisher Scientific Inc., Cat#70011) plus 0.2% (vol/vol) Tween 20 (J. T. Baker, Cat#JTB-X251-07)) was added in the “Wash” hole of array. […]
(§2) The glycan array was put on the Agnitio BioIC Pumping Machine for pressurizing 30 minutes. The bound serum was visualized monitored using Agnitio BioIC Analyzer. The absorbance intensity of array was converted into “Glycan Scores” based on the following calculation: In certain examples, glycan scores=(raw data−background)/Internal Control×10. […]

A further experiment relates to Human IgG. The experiment can be described thus: Glycan array analysis (primary test), glycan score of Human IgG. In kind it is binding.
From the text: as §1
The Microfluidic cartridge was manufactured at Agnitio Science and Technology Inc. The microfluidic cartridge was composed by three layers shown in FIG. 9. The upper layer contained serum and reagents reservoirs, microfluidic pumps, and ELISA channel network. […]
as §2

The next experiment has as its system VK9. The experiment can be described thus: ELISA binding of VK9 to plate-coated Globo H-ceramide and Globo H-lipids. The conditions noted are these: glycan immobilized on microtiter plate from 0.001 to 10 μg/mL; FIG. 8A. As to the method:
Enzyme-linked immunosorbent assay. Clear Flat-Bottom Immuno Nonsterile 96-Well Plates (Thermo Fisher Scientific Inc., Cat#442404)) were coated with the respective glycan-linked glycopeptides at 0.2 μg to 50 μL ethanol per well and were incubated at room temperature overnight. Then 100 μL Casein Blocking Buffer (Sigma-Aldrich Co. LLC, Cat#B6429) was added to each well and the microtiter plate was incubated at room temperature for 30 minutes. All subsequent steps were performed at room temperature.
The microtiter plate was treated with 50 μL of different dilutions of VK9 cells in Casein Blocking Buffer to each well and incubated at room temperature for 1 hr. The wells were then washed three times with Phosphate-buffered saline (Thermo Fisher Scientific Inc., Cat#70011) plus 0.05% (vol/vol) Tween 20 (J. T. Baker, Cat#JTB-X251-07) using a microplate washer (SkanWash 400, Molecular Devices LLC.). […]
The microtiter plate was treated with 100 μL of Alkaline Phosphatase (pNPP) Yellow Liquid Substrate System for ELISA (Sigma-Aldrich Co. LLC., Cat#P7998) at 37° C. for 20 minutes and the reaction was stopped by adding another 50 μL of Stop Solution (3N NaOH). The bound VK9 cells were visualized monitored at 405 nm using a microplate reader (SpectraMax M2, Molecular Devices LLC.). […]

A further experiment relates to IgM. The experiment in a line: Sugar array IgM binding with pancreatic cancer and healthy clinical samples. Details: species or system human. As to the method: The Globo H lipid 1, Globo H lipid 2, and Globo H-ceramide were immobilized on microtiter plate from 0.001 to 10 μg/mL, separately. […] In addition, the comparison of IgM binding patterns of Globo H-ceramide, Globo H-lipid 1, and Globo H-lipid 2 using sugar array was listed in FIG. 8B. […] In some embodiments the complex binding agent may comprise any of the complex binding agents or detectable labels of this disclosure. In certain exemplary embodiments, the Globo H ceramide and Globo H lipids are the array elements and the IgM antibodies are from the sample. And then secondary labeled anti-human ab are used to detect the complexes

Consider `CCCCCCCCCCCCCCCCOCC(OCCCCCCCCCCCCCCCC)C(=O)NCCCCCO[C@H]1OC(CO)[C@@H](O[C@@H]2OC(CO)[C@H](O[C@H]3OC(CO)[C@H](O)C(O[C@@H]4OC(CO)[C@H](O)C(O[C@@H]5OC(CO)[C@H](O)C(O)C5O[C@@H]5OC(C)[C@@H](O)C(O)C5O)C4NC(C)=O)C3O)C(O)C2O)C(O)C1O` (stereo partly shown) [Globo H-lipid 1], for which the “median Ab level, IgM test” value came to 0.25 µg/mL with Human IgM [1] (healthy serum) and 0.32 µg/mL in the experiment on Human IgM [1] (pancreatic cancer serum). Also, the “median glycan score, IgM test” value with Human IgM [2] (healthy serum) is recorded as 2.56; in the experiment on Human IgM [2] (pancreatic cancer serum) it was 6.64. Moreover, the “median glycan score, IgG test” value in the experiment with Human IgG (healthy serum) turned out to be 0.12; with Human IgG (pancreatic cancer serum), 0.54.
Turning to `CCCCCCCCCCCCCCCCOC[C@@H](COC(=O)CCCC(=O)NCCCCCO[C@H]1OC(CO)[C@@H](O[C@@H]2OC(CO)[C@H](O[C@H]3OC(CO)[C@H](O)C(O[C@@H]4OC(CO)[C@H](O)C(O[C@@H]5OC(CO)[C@H](O)C(O)C5O[C@@H]5OC(C)[C@@H](O)C(O)C5O)C4NC(C)=O)C3O)C(O)C2O)C(O)C1O)OCCCCCCCCCCCCCCCC` (stereo partly shown) [Globo H-lipid 2], the “optical density at 405 nm (OD405)” value in the experiment on VK9 is “higher than Globo H-ceramide”.
As for `CCCCCCCCCCCCCCCCOC[C@@H](OCCCCCCCCCCCCCCCC)C(=O)NCCCCCO[C@@H]1O[C@H](CO)[C@@H](O[C@@H]2O[C@H](CO)[C@H](O[C@H]3O[C@H](CO)[C@H](O)[C@H](O[C@@H]4O[C@H](CO)[C@H](O)[C@H](O[C@@H]5O[C@H](CO)[C@H](O)[C@H](O[C@]6(C(=O)O)C[C@H](O)[C@@H](NC(C)=O)[C@H]([C@H](O)[C@H](O)CO)O6)[C@H]5O)[C@H]4NC(C)=O)[C@H]3O)[C@H](O)[C@H]2O)[C@H](O)[C@H]1O` [SSEA-4-lipid 1], the results for the “median Ab level, IgM test” value with Human IgM [1] (healthy serum) and in the experiment with Human IgM [1] (pancreatic cancer serum) were 0.08 µg/mL and 0.12 µg/mL, respectively.
Turning to Globo H-ceramide [reference compound], the “median glycan score, IgM test” value is listed as 1.57 with Human IgM [2] (healthy serum) and 2.53 in the experiment with Human IgM [2] (pancreatic cancer serum). In the experiment with IgM (healthy samples), the “Mean (IgM) Healthy (n = 100)” value was 1977.88. In the experiment on IgM (pancreatic cancer samples), the “Mean (IgM) Pancreatic cancer (n = 115)” value turned out to be 3130.03.
